Measurements published in patent US12221649B2 (priority 2018, dated 2025).
Values belong to the compound of their own block, whether it stands above or below them.

Experiments:
carboxypeptidase A (CPA) = molecular target: T1, carboxypeptidase A (CPA) (Homo sapiens, UniProt P15085); assay: Enzyme assay of Compound A and CPA (fluorescence increase); format: biochemical; details: 37° C.
T1 sequence (P15085 111-419): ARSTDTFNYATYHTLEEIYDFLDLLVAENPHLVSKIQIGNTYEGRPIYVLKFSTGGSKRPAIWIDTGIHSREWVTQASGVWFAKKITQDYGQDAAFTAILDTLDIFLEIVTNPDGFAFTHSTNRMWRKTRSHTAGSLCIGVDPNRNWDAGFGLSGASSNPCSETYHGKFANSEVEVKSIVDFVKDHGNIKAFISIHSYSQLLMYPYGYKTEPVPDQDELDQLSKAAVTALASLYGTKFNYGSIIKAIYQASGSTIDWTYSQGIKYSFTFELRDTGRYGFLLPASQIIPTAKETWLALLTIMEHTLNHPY
Procedure: An enzyme assay using the synthesized Compounds A, B was performed.
(§1) FIG. 2(a) illustrates a reaction scheme of Compound A and CPA. In FIG. 2(b), 10 μM Compound A in PBS (-) was incubated at 37° C. with 5 ng CPA activated by 1.5 μg trypsin in the presence or absence of 100 μM inhibitor ((S)-benzylsuccinic acid) containing 0.1% DMSO as a co-solvent. Ex/Em=355/460 nm. n=4. (In FIG. 2, Try represents trypsin, and SBSA represents (S)-benzylsuccinic acid.)

PSMA = PSMA (Homo sapiens, UniProt Q04609); assay: Enzyme assay of probes and PSMA (fluorescence increase); format: biochemical; details: 10 μM probe in TBS buffer, 37° C., 22 ng PSMA, Ex/Em=355/460 nm
Procedure: An enzyme assay was performed using the synthesized 4MU-tSoul-AE and PSMA.
An enzyme assay was performed using the synthesized 4MU-tSoul-GE and PSMA.
Here, FIG. 9(a) illustrates a reaction scheme of 4MU-tSoul-GE and PSMA. […] Ex/Em=355/460 nm. n=3.

trypsin = molecular target: T2, trypsin (Bos taurus, UniProt P00760); assay: Compound A with only trypsin added (control condition of the CPA assay); format: biochemical; details: 10 μM Compound A, no CPA
T2 construct: gene PRSS1
T2 sequence (P00760 24-246): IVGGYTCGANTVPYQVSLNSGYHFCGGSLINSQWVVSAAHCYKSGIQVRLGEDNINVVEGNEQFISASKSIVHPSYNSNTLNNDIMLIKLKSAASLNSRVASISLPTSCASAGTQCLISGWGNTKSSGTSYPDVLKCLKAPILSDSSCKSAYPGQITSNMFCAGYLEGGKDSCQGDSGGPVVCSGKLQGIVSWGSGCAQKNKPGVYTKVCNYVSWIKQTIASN
Procedure: (§2) An enzyme assay using the synthesized Compounds A, B was performed. As a result, the fluorescence of Compounds A and B was increased by incubation with carboxypeptidase A (CPA) and carboxypeptidase B (CPB) which were the respective target enzymes, and the increase in fluorescence was suppressed by addition of (S)-benzylsuccinic acid and MGTA which were the respective inhibitors.
as §1

[1] = format: physicochemical; details: for fluorescence change in the absence of enzyme (non-enzymatic degradation): 10 μM probe in PBS(-), pH 7.4, 37° C., no enzyme
Procedure: as §2
(§3) FIG. 4(a) illustrates a reaction scheme of Compound C and CPB. In FIG. 4(b), 10 μM Compound C in PBS (-) was incubated at 37° C. in the presence or absence of 5 ng CPB containing 0.1% DMSO as a co-solvent. Ex/Em=355/460 nm. n=4. […] 10 μM Compound A or Compound C in PBS (-) was incubated at 37° C. in the absence of CPB. Ex/Em=355/460 nm. n=4.
(§4) Next, reactivity with CPB and the stability in a buffer solution having a pH of 7.4 were examined. As a result, it became clear that while HMRef-tSoul-AR caused a fluorescence increase of 3320 times by reaction with CPB, HMRef-tSoul-AR was stable for at least about 1 hour in the absence of enzyme. The results are illustrated in FIG. 5.
(§5) FIG. 5(a) illustrates a reaction scheme of HMRef-tSoul-AR and CPB. FIG. 5(b) illustrates the fluorescence increase of 1 μM HMRef-tSoul-AR in PBS (-) incubated with 30 μg CPB containing 0.1% DMSO as a co-solvent. Incubation was performed at 25° C. The excitation wavelength was 498 nm. FIG. 5(c) illustrates an absorption change of 1 μM HMRef-tSoul-AR in PBS (-) at 25° C. for 50 minutes.

carboxypeptidase B (CPB) = molecular target: T3, carboxypeptidase B (CPB) (Homo sapiens, UniProt P15086); format: biochemical; details: for fluorescence change on incubation with CPB: 10 μM probe in PBS(-), Ex/Em=355/460 nm
T3 sequence (P15086 111-417): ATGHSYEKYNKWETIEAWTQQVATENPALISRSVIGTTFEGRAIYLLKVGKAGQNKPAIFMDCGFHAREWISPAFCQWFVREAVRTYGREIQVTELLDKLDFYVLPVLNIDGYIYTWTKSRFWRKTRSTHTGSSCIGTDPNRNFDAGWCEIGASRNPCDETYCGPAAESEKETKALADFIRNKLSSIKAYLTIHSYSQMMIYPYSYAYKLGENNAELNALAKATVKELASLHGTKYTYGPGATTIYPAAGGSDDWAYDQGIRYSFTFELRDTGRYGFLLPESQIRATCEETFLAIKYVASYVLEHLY
Procedure: as §2
FIG. 3(a) illustrates a reaction scheme of Compound B and CPB. In FIG. 3(b), 10 μM Compound B in PBS (-) was incubated at 37° C. with 5 ng CPB in the presence or absence of 100 μM inhibitor (MGTA) containing 0.1% DMSO as a co-solvent. Ex/Em=355/460 nm. n=4.
An enzyme assay using the synthesized Compound C and CPB was performed.
as §3, §4, §5

CPB = molecular target: T4, CPB (Homo sapiens, UniProt P15086); assay: Enzyme reaction rate parameters with CPB (fluorescence method, plate reader); format: biochemical; details: CPB 5 ng, 37° C., PBS pH 7.4, 20 μL, apparent
T4 sequence (P15086 111-417): T3 sequence (P15086 111-417)
Procedure: (§6) In addition, an enzyme reaction rate parameter was calculated.
(§7) All experiments were performed at 37° C. in a total volume of 20 μL of phosphate buffered saline (pH 7.4) containing DMSO as a co-solvent. 5 ng of CPB or CPM was added. An enzyme reaction initial rate was calculated from a fluorescence change at 535 nm using a plate reader (n=3). The excitation wavelength was 485 nm.

carboxypeptidase M (CPM) = molecular target: T5, carboxypeptidase M (CPM) (Homo sapiens, UniProt P14384); assay: Enzyme reaction rate parameters with CPM (fluorescence method, plate reader); format: biochemical
T5 sequence (P14384 18-423): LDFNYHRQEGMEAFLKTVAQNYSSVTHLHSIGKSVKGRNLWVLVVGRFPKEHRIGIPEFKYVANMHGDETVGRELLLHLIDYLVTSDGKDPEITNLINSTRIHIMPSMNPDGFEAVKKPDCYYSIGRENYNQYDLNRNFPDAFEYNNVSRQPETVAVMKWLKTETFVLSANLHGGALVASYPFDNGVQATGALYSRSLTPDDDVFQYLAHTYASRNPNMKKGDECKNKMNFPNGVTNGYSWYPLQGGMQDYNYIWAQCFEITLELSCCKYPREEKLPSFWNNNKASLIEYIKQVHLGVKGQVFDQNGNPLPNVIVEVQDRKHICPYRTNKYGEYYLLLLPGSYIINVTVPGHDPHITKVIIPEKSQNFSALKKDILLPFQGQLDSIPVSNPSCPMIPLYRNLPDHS
Procedure: as §6, §7

[2] = test system: MDCK cells expressing CPM; assay: Live imaging of CPM activity in MDCK cells; format: cell-based
Procedure: Live imaging of the carboxypeptidase activity in living cells was performed using HMRef-tSoul-AR synthesized above. […] Since it has been reported that CPM is expressed as an active form on a cell membrane unlike CPB, addition of trypsin or the like is unnecessary.
Here, FIGS. 6(a) and 6(b) illustrate fluorescence images of the MDCK cells containing 10 μM HMRef-tSoul-AR in HBSS in the presence (a) or absence (b) of 10 μM MGTA. Ex/Em=488/500-550 nm laser output 5%, PMT 600 V. 10 μM Hoechst 33342 was co-incubated for focal plane correction. For imaging of a Hoechst signal, Ex/Em=405/430-460 nm. Laser output 3%, PMT 1000 V, SP8.
Here, FIG. 7 illustrates results of UPLC analysis of a medium of the MDCK cells incubated with 20 μM HMRef-tSoul-AR in the presence or absence of 10 μM MGTA. The MDCK cells were incubated with 20 μM HMRef-tSoul-AR in HBSS at 37° C. for 20 hours in the presence or absence of 10 μM MGTA. Elution was performed with a linear gradient of C/D=95/5 to 5/95 in 4 minutes and detected at 254 nm.

[3] = test system: basic carboxypeptidase activity in breast cancer tissue; assay: Fluorescence imaging of clinical specimens derived from breast cancer patients; parameters: species or system human
Procedure: Four specimens (IDC: invasive ductal carcinoma, 3 cases; DCIS: ductal carcinoma in situ, 1 case) derived from breast cancer patients were subjected to fluorescence imaging by applying HMRef-tSoul-AR to a tumor site and a normal site by the following procedure (FIG. 10).
HMRef-tSoul-AR was dissolved in PBS so as to have a final concentration of 50 μM (containing 1% DMSO), and applied to clinical specimens from breast cancer patients in the presence and absence of 100 μM MGTA. A fluorescence image was captured on Maestro in vivo imaging system (PerkinElmer, Inc., MA, USA), a 455 nm (435-480 nm) band pass filter was used as an excitation light filter, and a 490 nm long pass filter was used as a fluorescence filter.
When an increase was observed, in order to examine whether or not the increase was derived from basic carboxypeptidase activity, a group to which the inhibitor MGTA was added was also examined at the same time.

[4] = CPM 5 ng, 37° C., PBS pH 7.4, 20 μL, apparent

PSMA, sequence (Q04609 whole entry): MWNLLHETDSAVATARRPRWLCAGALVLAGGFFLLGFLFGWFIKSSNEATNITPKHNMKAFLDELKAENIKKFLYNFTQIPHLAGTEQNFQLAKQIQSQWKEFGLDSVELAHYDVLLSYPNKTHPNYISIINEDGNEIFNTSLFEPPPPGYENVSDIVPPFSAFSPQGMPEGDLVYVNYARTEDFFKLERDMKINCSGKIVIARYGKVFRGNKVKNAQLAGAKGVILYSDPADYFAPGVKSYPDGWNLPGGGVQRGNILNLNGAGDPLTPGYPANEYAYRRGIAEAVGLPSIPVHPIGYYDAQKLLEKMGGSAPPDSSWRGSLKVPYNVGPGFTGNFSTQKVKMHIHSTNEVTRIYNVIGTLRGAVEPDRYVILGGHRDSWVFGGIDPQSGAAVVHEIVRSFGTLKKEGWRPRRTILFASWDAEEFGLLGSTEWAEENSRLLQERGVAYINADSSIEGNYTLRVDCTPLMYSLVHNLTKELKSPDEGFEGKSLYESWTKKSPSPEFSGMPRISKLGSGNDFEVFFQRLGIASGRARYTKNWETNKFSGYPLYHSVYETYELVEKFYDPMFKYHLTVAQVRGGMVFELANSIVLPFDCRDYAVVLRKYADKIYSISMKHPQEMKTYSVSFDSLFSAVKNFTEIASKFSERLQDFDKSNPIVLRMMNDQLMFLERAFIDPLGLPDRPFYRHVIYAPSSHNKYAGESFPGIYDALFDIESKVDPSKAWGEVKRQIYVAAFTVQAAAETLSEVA

effect of inhibitor on the increase in fluorescence of Compound A with CPA (carboxypeptidase A (CPA); 100 μM inhibitor, 10 μM Compound A, 5 ng CPA): suppressed
SMILES: O=C(O)C[C@H](Cc1ccccc1)C(=O)O [(S)-benzylsuccinic acid, reference compound]

SMILES: Cc1cc(=O)oc2cc(OP(=O)(N[C@@H](C)C(=O)N[C@@H](CCC(=O)O)C(=O)O)C(C)(C)C)ccc12 (stereo partly shown) [Compound 4MU-tSoul-AE]
fluorescence change on incubation with PSMA (PSMA): the increase in fluorescence was not observed

SMILES: Cc1cc(=O)oc2cc(OP(=O)(NCC(=O)N[C@@H](CCC(=O)O)C(=O)O)C(C)(C)C)ccc12 (stereo partly shown) [Compound 4MU-tSoul-GE]
fluorescence change on incubation with PSMA (PSMA): the increase in fluorescence was observed

SMILES: CCOP(=O)(N[C@@H](C)C(=O)N[C@@H](Cc1ccccc1)C(=O)O)Oc1ccc2c(C)cc(=O)oc2c1 (stereo partly shown) [Compound A]
fluorescence change on incubation with CPA (carboxypeptidase A (CPA); 10 μM probe in PBS(-), 5 ng CPA activated by 1.5 μg trypsin, Ex/Em=355/460 nm): increased
fluorescence change with only trypsin added (trypsin): a remarkable increase in fluorescence was not observed
fluorescence change in the absence of enzyme (non-enzymatic degradation) [1]: gradually increased even slightly

SMILES: CCOP(=O)(N[C@@H](C)C(=O)N[C@@H](CCCNC(=N)N)C(=O)O)Oc1ccc2c(C)cc(=O)oc2c1 (stereo partly shown) [Compound B]
fluorescence change on incubation with CPB (carboxypeptidase B (CPB); 37° C., 5 ng CPB): increased
fluorescence change in the absence of enzyme (non-enzymatic degradation) [1]: gradually increased even slightly

SMILES: Cc1cc(=O)oc2cc(OP(=O)(N[C@@H](C)C(=O)N[C@@H](CCCNC(=N)N)C(=O)O)C(C)(C)C)ccc12 (stereo partly shown) [Compound C]
fluorescence change on incubation with CPB (carboxypeptidase B (CPB); 37° C., 5 ng CPB): served as a substrate for CPB and showed the increase in fluorescence
fluorescence change in the absence of enzyme (non-enzymatic degradation) [1]: no increase in fluorescence was observed

SMILES: C[C@H](NP(=O)(Oc1ccc2c(c1)Oc1cc(NCC(F)(F)F)ccc1C21OCc2ccccc21)C(C)(C)C)C(=O)N[C@@H](CCCNC(=N)N)C(=O)O (stereo partly shown) [HMRef-tSoul-AR]
Km (CPB): 50 µM
Vmax (CPB): 1.2e-08 M/s
kcat (CPB): 1.7 s⁻¹
substrate recognition by CPM (carboxypeptidase M (CPM)): served as a substrate
Km (carboxypeptidase M (CPM); [4]): 61 µM
Vmax (carboxypeptidase M (CPM); [4]): 4e-08 M/s
kcat (carboxypeptidase M (CPM); [4]): 1.0 s⁻¹
fluorescence increase by reaction with CPB (carboxypeptidase B (CPB); 1 μM probe in PBS(-), 30 μg CPB, 25° C., excitation 498 nm): 3320 times
fluorescence from MDCK cells over time ([2]; 10 μM probe in HBSS, Ex/Em=488/500-550 nm): an increase in fluorescence over time from the MDCK cells was observed
generation of HMRef in external liquid of MDCK cells (UPLC) ([2]; 20 μM probe, HBSS, 37° C., 20 hours): HMRef was certainly generated
fluorescence from tumor tissue as compared with normal tissue ([3]; 50 μM probe in PBS (1% DMSO), four breast cancer specimens): remarkable increase in fluorescence
time stable in the absence of enzyme ([1]; 1 μM probe, buffer pH 7.4, 25° C., absorption change): at least 1 hour

SMILES: NC(N)=NCCSCC(CS)C(=O)O (stereo not shown) [MGTA, reference compound]
effect of inhibitor on the increase in fluorescence of Compound B with CPB (carboxypeptidase B (CPB); 100 μM inhibitor, 10 μM Compound B, 5 ng CPB, 37° C.): suppressed
effect of inhibitor on the increase in fluorescence of HMRef-tSoul-AR in MDCK cells ([2]; 10 μM inhibitor, 10 μM HMRef-tSoul-AR in HBSS): completely suppressed
effect of inhibitor on the increase in fluorescence of HMRef-tSoul-AR in breast cancer specimens ([3]; 100 μM inhibitor, 50 μM HMRef-tSoul-AR): suppressed
